# Assay results from US10034844B2, “Method for enhancing immunity, inhibiting allergic reaction, and/or inhibiting autoimmune reaction” (TCI CO., LTD., priority 2016, dated 2018).
# Experiments:
# [1] = test system: HLA-DQB1; experiment: RNA microarray, HLA-DQB1 expression in PBMCs (MHC-II pathway); format: cell-based, human; conditions: final concentration of 5%, 24 hours, normalized to control group
# Description: (§1) PBMCs are immunocytes present in the peripheral blood. In these preparation examples, PBMCs were isolated from the peripheral blood obtained from healthy donors.
# (§2) B. Treatments Applied to PBMCs • (b1) 1 mL X-VIVO 10 medium was added into each well of a 24-well plate, and then PBMCs obtained from step A were seeded into the medium with a density of 1×10^6 to 2×10^6/well; and • (b2) PBMCs obtained from step b1 were separated into two groups for the following treatments: • Control group: the PBMCs-containing medium was directly incubated in a 37° C. constant temperature incubator with 5% CO2 (i.e., PBMCs were cultured in a medium that was free of the compound of formula (I)) for 24 hours; • Experimental group: the compound of formula (I) was added to the PBMCs-containing medium until a final concentration of 5%, and then the medium was incubated in a 37° C. constant temperature incubator with 5% CO2 for 24 hours. […]
# (§3) To know whether the compound of formula (I) can inhibit the activation of the MHC-II pathway, after determining mRNA expression levels via the above Preparation example C, the expression levels of genes relating to MHC-II pathway (including CD4, CD74, CIITA, HLA-DMB, HLA-DPA1, HLA-DPB1, HLA-DQB1, HLA-DRA, and LGMN) of the control and experimental group were recorded respectively. […]
# [2] = test system: HLA-DPB1; experiment: RNA microarray, HLA-DPB1 expression in PBMCs (MHC-II pathway); format: cell-based, human; conditions: final concentration of 5%, 24 hours, normalized to control group
# Description: as §1, §2, §3
# [3] = test system: FOXO3 (forkhead box O3); experiment: RNA microarray, FOXO3 expression in PBMCs (genes delaying aging of immunocytes); format: cell-based, human; conditions: final concentration of 5%, 24 hours, compared to control group
# Description: as §1, §2
# (§4) To know whether the compound of formula (I) can delay the aging of immunocytes, after determining mRNA expression levels via the above Preparation example C, the expression levels of genes helpful for delaying the aging of immunocytes (including FOXO3, SOD2, and TNFRSF14) of the control and experimental group were recorded respectively. […]
# [4] = test system: HSPA2 (Heat Shock Protein Family A Member 2); experiment: RNA microarray, HSPA2 expression in PBMCs (MHC-I pathway); format: cell-based, human; conditions: final concentration of 5%, 24 hours, normalized to control group
# Description: as §1, §2
# as §3, with “promote” for “inhibit”, “MHC-I” for “MHC-II”, “CTSL, HSPA1B,” for “CD4, CD74, CIITA, HLA-DMB, HLA-DPA1, HLA-DPB1, HLA-DQB1, HLA-DRA,”, “HSPA2)” for “LGMN)”
# [5] = test system: CD74 (Cluster of Differentiation 74); experiment: RNA microarray, CD74 expression in PBMCs (MHC-II pathway); format: cell-based, human; conditions: final concentration of 5%, 24 hours, normalized to control group
# Description: as §1, §2, §3
# [6] = test system: ITGA4 (integrin subunit alpha 4); experiment: RNA microarray, ITGA4 expression in PBMCs (aging genes); format: cell-based, human; conditions: final concentration of 5%, 24 hours, normalized to control group
# Description: as §1, §2
# (§5) To know whether the compound of formula (I) can delay the aging of immunocytes, after determining mRNA expression levels via the above Preparation example C, the expression levels of genes representing the old stage of immunocytes (including CD244, ITGA4, and KLRG1) of the control and experimental group were recorded respectively. […]
# [7] = test system: TNF-α (tumor necrosis factor alpha); experiment: RNA microarray, TNF-α expression in PBMCs (macrophage activation); format: cell-based, human; conditions: final concentration of 5%, 24 hours, compared to control group
# Description: as §1, §2
# (§6) To know whether the compound of formula (I) can promote the activation of macrophages, after determining mRNA expression levels via the above Preparation example C, the expression levels of genes relating to macrophage activation (including IL-1B and TNF-α) of the control and experimental group were recorded respectively. […]
# [8] = test system: CIITA (Class II Major Histocompatibility Complex Transactivator); experiment: RNA microarray, CIITA expression in PBMCs (MHC-II pathway); format: cell-based, human; conditions: final concentration of 5%, 24 hours, normalized to control group
# Description: as §1, §2, §3
# [9] = test system: HLA-DPA1; experiment: RNA microarray, HLA-DPA1 expression in PBMCs (MHC-II pathway); format: cell-based, human; conditions: final concentration of 5%, 24 hours, normalized to control group
# Description: as §1, §2, §3
# [10] = test system: IL-1B (interleukin 1 beta); experiment: RNA microarray, IL-1B expression in PBMCs (macrophage activation); format: cell-based, human; conditions: final concentration of 5%, 24 hours, normalized to control group
# Description: as §1, §2, §6
# [11] = test system: KLRG1 (killer cell lectin-like receptor subfamily G, member 1); experiment: RNA microarray, KLRG1 expression in PBMCs (aging genes); format: cell-based, human; conditions: final concentration of 5%, 24 hours, normalized to control group
# Description: as §1, §2, §5
# [12] = test system: TNFRSF14 (TNF superfamily, member 14); experiment: RNA microarray, TNFRSF14 expression in PBMCs (genes delaying aging of immunocytes); format: cell-based, human; conditions: final concentration of 5%, 24 hours, compared to control group
# Description: as §1, §2, §4
# [13] = test system: CD244 (Cluster of Differentiation 244); experiment: RNA microarray, CD244 expression in PBMCs (aging genes); format: cell-based, human; conditions: final concentration of 5%, 24 hours, normalized to control group
# Description: as §1, §2, §5
# [14] = test system: HLA-DMB (human leukocyte antigen-DMB); experiment: RNA microarray, HLA-DMB expression in PBMCs (MHC-II pathway); format: cell-based; conditions: final concentration of 5%, 24 hours, normalized to control group
# Description: as §1, §2, §3
# [15] = test system: SOD2 (Superoxide dismutase 2); experiment: RNA microarray, SOD2 expression in PBMCs (genes delaying aging of immunocytes); format: cell-based, human; conditions: final concentration of 5%, 24 hours, normalized to control group
# Description: as §1, §2, §4
# [16] = test system: HSPA1B (heat shock protein family A member 1B); experiment: RNA microarray, HSPA1B expression in PBMCs (MHC-I pathway); format: cell-based, human; conditions: final concentration of 5%, 24 hours, compared to control group
# Description: as §1, §2
# as §6, with “the MHC-I pathway,” for “macrophages,”, “MHC-I pathway” for “macrophage activation”, “CTSL, HSPA1B,” for “IL-1B”, “HSPA2)” for “TNF-α)”
# [17] = test system: HLA-DRA; experiment: RNA microarray, HLA-DRA expression in PBMCs (MHC-II pathway); format: cell-based, human; conditions: final concentration of 5%, 24 hours, normalized to control group
# Description: as §1, §2, §3
# [18] = test system: LGMN (legumain); experiment: RNA microarray, LGMN expression in PBMCs (MHC-II pathway); format: cell-based, human; conditions: final concentration of 5%, 24 hours, normalized to control group
# Description: as §1, §2, §3
# [19] = test system: CD4 (Cluster of Differentiation 4); experiment: RNA microarray, CD4 expression in PBMCs (MHC-II pathway); format: cell-based, human; conditions: final concentration of 5%, 24 hours, normalized to control group
# Description: as §1, §2, §3
# [20] = test system: CTSL (Cathepsin L); experiment: RNA microarray, CTSL expression in PBMCs (MHC-I pathway); format: cell-based, human; conditions: final concentration of 5%, 24 hours, normalized to control group
# Description: as §1, §2
# as §6, with “the MHC-I pathway,” for “macrophages,”, “MHC-I pathway” for “macrophage activation”, “CTSL, HSPA1B,” for “IL-1B”, “HSPA2)” for “TNF-α)”
compound,measurement,setting,value
C=C1CC[C@@H](C)C2C[C@@H](O)[C@@H](C(C)C(=O)O)CC12 (some centres unmarked) [compound of formula (I)],expression level of HLA-DQB1,[1],0.14 times the level of the control group
same,expression level of HLA-DPB1,[2],0.23 times the level of the control group
same,expression level of FOXO3,[3],significantly increased
same,expression level of HSPA2,[4],4.61 times the level of the control group
same,expression level of CD74,[5],0.18 times the level of the control group
same,expression level of ITGA4,[6],0.24 times the level of the control group
same,expression level of TNF-α,[7],significantly increased
same,expression level of CIITA,[8],0.40 times the level of the control group
same,expression level of HLA-DPA1,[9],0.23 times the level of the control group
same,expression level of IL-1B,[10],16.32 times the level of the control group
same,expression level of KLRG1,[11],0.25 times the level of the control group
same,expression level of TNFRSF14,[12],significantly increased
same,expression level of CD244,[13],0.14 times the level of the control group
same,expression level of HLA-DMB,[14],0.31 times the level of the control group
same,expression level of SOD2,[15],6.06 times the level of the control group
same,expression level of HSPA1B,[16],significantly increased
same,expression level of HLA-DRA,[17],0.36 times the level of the control group
same,expression level of LGMN,[18],0.32 times the level of the control group
same,expression level of CD4,[19],0.47 times the level of the control group
same,expression level of CTSL,[20],3.13 times the level of the control group
